# Like-named read-outs stand apart in the source and are kept apart here.
# How the values were obtained:
# [1] = test system: FLC1 PDX cells; assay: Validation screen, 11-point dose response, 72 h, Cell Titer Glo; type: cell-based, human; settings: read-out: EC50 FLC
# [2] = test system: FLC2 PDX cells; assay: as above; type: cell-based, human; settings: read-out: EC50 FLC
# [3] = test system: FLC3 PDX cells; assay: as above; type: cell-based, human; settings: read-out: EC50 FLC
# [4] = test system: FLC4 PDX cells; assay: as above; type: cell-based, human; settings: read-out: EC50 FLC
# [5] = test system: FLC5 PDX cells; assay: as above; type: cell-based, human; settings: read-out: EC50 FLC
# [6] = test system: FLC PDX cells; assay: Validation screen on cells dissociated from FLC PDX; type: cell-based, human; settings: for Efficacy ranking in the screen: ranked by average −log10EC50 for FLC1-5 minus −log10EC50 for PHH; for EC50 / Effect on FLC PDX cells in vitro (dose response, normalized percent survival): 72 h; for Effect on FLC PDX cells in vitro (dose response, normalized percent survival): 10nM-10μM, FLC1-6; for Therapeutic window for FLC over PHH: FLC PDX cells compared with PHH
# [7] = test system: FLC5 cells; assay: Anchor screen, synergy assay; type: cell-based, human; settings: FLC5, ZIP, Bliss and HSA scores
# [8] = test system: cells dissociated directly from patient tumors (FLC.T6-T11); assay: Direct from patient in vitro screening; type: cell-based, human; settings: for Sensitivity of cells tested directly from patients: 10μM-10nM, 72h, Cell Titer Glo; for Drug sensitivity of FLC.T6 compared with derived PDX FLC6 (EC50): cells direct from patient tumor vs cells from its PDX
# [9] = biological target: PKA; settings: read-out: Ki PKA; cited from earlier work
# [10] = biological target: Akt1; settings: read-out: Ki against other kinases: Akt1; cited from earlier work
# [11] = biological target: Akt3; settings: read-out: Ki against other kinases: Akt3; cited from earlier work
# [12] = test system: primary human hepatocytes (PHH); assay: Validation counter-screen on primary human hepatocytes; settings: 72 h; for EC50: read-out: EC50 PHH; for Effect on PHH (dose response, normalized percent survival): up to 10 μM
# [13] = test system: FLC1,3,5 cells; assay: Synergy assay, combination matrix with panobinostat; type: cell-based, human
# [14] = test system: AURKA; settings: read-out: IC50 AURKA; cited from earlier work
# [15] = test system: PAK 1; settings: read-out: IC50 PAK 1; cited from earlier work
# [16] = test system: PAK 2; settings: read-out: IC50 PAK 2; cited from earlier work
# [17] = test system: PAK 3; settings: read-out: IC50 PAK 3; cited from earlier work
# [18] = test system: FLC patients; settings: two FLC patients, clinical trial ref 10; cited from earlier work
# [19] = test system: cells dissociated from PDX FLC1 and FLC5; assay: Primary high throughput screen, 1μM, 72 h; type: cell-based, human; settings: pass = survival <60%
# [20] = test system: FLC1 cells; assay: Role of ROS: survival with or without N-acetyl cysteine 10mM; type: cell-based, human; settings: NAC 10mM, 72 h
# [21] = test system: FLC PDX; assay: In vivo drug testing of HDAC inhibitors in mice bearing PDX
# [22] = test system: mTOR; settings: read-out: IC50 mTOR; cited from earlier work
# [23] = test system: eIF4F sensitive proteins in FLC6 cells; assay: Immunoblot of eIF4F sensitive protein levels; type: cell-based, human
# [24] = test system: FLC1 PDX; assay: In vivo drug testing in mice bearing PDX FLC1
# [25] = test system: ErbB2; settings: read-out: IC50 ErbB2; cited from earlier work
# [26] = biological target: PKG; settings: read-out: Ki against other kinases: PKG; cited from earlier work
# [27] = test system: PI3K (p110α)/DNA-PK; settings: read-out: IC50 PI3K (p110α)/DNA-PK; cited from earlier work
# [28] = test system: EGFR; settings: read-out: IC50 EGFR; cited from earlier work
# [29] = napabucasin 10mg/kg IP, 5 days on 2 days off, FLC1
# [30] = napabucasin 10mg/kg IP, 14 days
# [31] = napabucasin 10mg/kg, after 14 days
molecule,measurement,setting,value
"Cn1ncc(Cl)c1-c1cc(C(=O)N[C@H](CN)Cc2ccc(F)c(F)c2)oc1Cl [Uprosertib (GSK2141795), Uprosertib]",EC50,"[1]; Homo sapiens, 72 h",0.049 µM
same,EC50,"[2]; Homo sapiens, 72 h",5.04 µM
same,EC50,"[3]; Homo sapiens, 72 h",0.87 µM
same,EC50,"[4]; Homo sapiens, 72 h",0.91 µM
same,EC50,"[5]; Homo sapiens, 72 h",1.72 µM
same,Efficacy ranking in the screen,[6],28
same,Synergy with A1331852,[7],"All drugs, apart from ENMD-2076 and uprosertib, showed some synergy"
same,Synergy with navitoclax,[7],now synergized
same,Sensitivity of cells tested directly from patients,[8],some sensitivity
same,Ki,[9],0.002 µM
same,Ki,[10],0.18 µM
same,Ki,[11],0.038 µM
same,EC50,"[12]; Homo sapiens, Hepatocyte",> 10 µM
CNC(=O)c1cccc(-c2ccc3c(N4CCOC[C@@H]4C)nc(N4CCOC[C@@H]4C)nc3n2)c1 [visusertib],Synergy with A1331852,[7],some synergy
Cc1c2c(nn1C)CSCc1cc(n(C)n1)CSc1cc(c3ccccc3c1)OCCCc1c(C(=O)O)n(C)c3c-2c(Cl)ccc13 [AZD5991],Synergy with panobinostat (ZIP synergy score),[13],more modest synergy
Aurora Kinase Inhibitor I,EC50,[6]; read-out: EC50 against the PDX cells,1 to 4 µM
same,IC50,[14],0.0034 µM
CCn1c(=O)c(-c2ccc(-c3cncs3)cc2Cl)cc2cnc(Nc3ccc(N4CCN(C)CC4)cc3)nc21 [FRAX567],"Effect on FLC PDX cells in vitro (dose response, normalized percent survival)",[6],consistent inhibition against all PDX
same,Efficacy ranking in the screen,[6],12
same,IC50,[15],0.008 µM
same,IC50,[17],0.019 µM
CN1CC[C@H](c2c(O)cc(O)c3c(=O)cc(-c4ccccc4Cl)oc23)[C@H](O)C1 [flavopiridol],Sensitivity of cells tested directly from patients,[8],some sensitivity
same,Duration of stable disease,[18],17 months
same,"Effect on PHH (dose response, normalized percent survival)",[12],toxic
"NC1(C(=O)N[C@@H](CCO)c2ccc(Cl)cc2)CCN(c2nc[nH]c3nccc2-3)CC1 [Capivasertib (AZD5363), Capivasertib]",EC50,"[1]; FLC1, 72 h",2.98 µM
same,EC50,"[2]; FLC2, 72 h",3.85 µM
same,EC50,"[3]; FLC3, 72 h",5.15 µM
same,EC50,"[4]; FLC4, 72 h",2.09 µM
same,EC50,"[5]; FLC5, 72 h",12.6 µM
same,EC50,[12],> 10 µM
Cc1c(-c2ccc(N3CCc4cccc(C(=O)Nc5nc6ccccc6s5)c4C3)nc2C(=O)O)cnn1CC12CC3CC(CC(C3)C1)C2 [A1331852],Synergy with panobinostat (ZIP synergy score),[13],synergized
CC(=O)Nc1cccc(-n2c(=O)n(C3CC3)c(=O)c3c(Nc4ccc(I)cc4F)n(C)c(=O)c(C)c32)c1 [trametinib],Result in primary screen (normalized percent survival),[19],None
same,Synergy with A1331852,[7],some synergy
Cn1cc(CNCC2CCN(c3ncc(C(=O)NO)cn3)CC2)c2ccccc21 [quisinostat],Effect of N-acetyl cysteine (NAC) on the toxicity of the drug,[20],mildly attenuated
same,Tumor growth at 14 days,[21]; 10mg/kg IP,7%
same,Apoptosis as assayed by TUNEL,"[21]; 10mg/kg, after 14 days",no significant increase
same,"Mitotic figures, Ki67 and pHH3 positive cells in tumors","[21]; 10mg/kg, after 14 days",almost complete disappearance
same,Macroscopic assessment of tumors,"[21]; quisinostat 10mg/kg daily IP, 14 days",necrosis in the drug treated tumors
same,Sensitivity of cells tested directly from patients,[8],sensitive
CO[C@H]1C[C@@H]2CC[C@@H](C)[C@@](O)(O2)C(=O)C(=O)N2CCCC[C@H]2C(=O)O[C@H]([C@H](C)C[C@@H]2CC[C@@H](OCCO)[C@H](OC)C2)CC(=O)[C@H](C)/C=C(\C)[C@@H](O)[C@@H](OC)C(=O)[C@H](C)C[C@H](C)/C=C/C=C/C=C/1C [everolimus],Synergy with A1331852,[7],some synergy
same,IC50,[22],0.0016 to 0.0024 µM
Cc1ccc(S(=O)(=O)c2ccc([N+](=O)[O-])o2)cc1 [NSC697923],Efficacy ranking in the screen,[6],7
same,Effect of N-acetyl cysteine (NAC) on the toxicity of the drug,[20],completely abrogated
same,Sensitivity of cells tested directly from patients,[8],blunted response
same,Drug sensitivity of FLC.T6 compared with derived PDX FLC6 (EC50),[8],outliers
CC(=O)c1cc2c(o1)C(=O)c1ccccc1C2=O [napabucasin],Effect of N-acetyl cysteine (NAC) on the toxicity of the drug,[20],partially attenuated
same,c-Myc levels,"[23]; 1 μM napabucasin, FLC cells, GAPDH control",dramatic decrease
same,"Levels of MDM2, Bcl-xL, MCL1 and Cyclin D1","[23]; napabucasin 1μM or 2μM, FLC6 cells",lowered the levels
same,Tumor growth at 7 days,[24]; [29],44%
same,Tumor growth at 14 days,[24]; [29],52%
same,Average weight loss,[24]; [30],6.7%
same,Ratio of tumor volume:mouse weight,[24]; [30],stable or decreased
same,"Mitotic figures, Ki67 and pHH3 positive cells in tumors",[24]; [31],decrease
same,TUNEL positive cells in tumors,[24]; [31],small increase
same,Sensitivity of cells tested directly from patients,[8],sensitive
same,Drug sensitivity of FLC.T6 compared with derived PDX FLC6 (EC50),[8],correlated well
same,"Effect on PHH (dose response, normalized percent survival)",[12],no detectable effect
COCC(=O)NC/C=C/c1ccc2ncnc(Nc3ccc(Oc4ccc(C)nc4)c(C)c3)c2c1 [CP-724714],"Effect on FLC PDX cells in vitro (dose response, normalized percent survival)",[6],no effect
same,IC50,[25],0.01 µM
Cc1cc(Nc2cc(N3CCN(C)CC3)nc(/C=C/c3ccccc3)n2)n[nH]1 [ENMD-2076],EC50,"[6]; Homo sapiens, read-out: EC50 against the PDX cells",> 5 µM
same,Efficacy ranking in the screen,[6],123
same,Synergy with A1331852,[7],"All drugs, apart from ENMD-2076 and uprosertib, showed some synergy"
CC[C@@]1(O)C(=O)OCc2c1cc1n(c2=O)Cc2cc3c(CN(C)C)c(O)ccc3nc2-1 [topotecan],Synergy with A1331852,[7],some synergy
Cc1ccc(NC2=CC(=O)c3sc(C)nc3C2=O)cc1 [ryuvidine],"Effect on FLC PDX cells in vitro (dose response, normalized percent survival)",[6],effective against all PDX lines
same,Efficacy ranking in the screen,[6],third
same,EC50,"[6]; read-out: EC50 against FLC PDX in vitro, across all FLC PDX lines",0.02 to 0.2 µM
same,Effect of N-acetyl cysteine (NAC) on the toxicity of the drug,[20],completely abrogated
same,EC50,[12],> 10 µM
O=S(=O)(NCCNC/C=C/c1ccc(Br)cc1)c1cccc2cnccc12 [H89],EC50,"[1]; FLC1, 72 h",5.82 µM
same,EC50,"[2]; FLC2, 72 h",23.9 µM
same,EC50,"[3]; FLC3, 72 h",18.2 µM
same,EC50,"[4]; FLC4, 72 h",20.9 µM
same,EC50,"[5]; FLC5, 72 h",9.49 µM
same,Therapeutic window for FLC over PHH,[6],no therapeutic window
same,Ki,[9],0.048 µM
same,Ki,[26],0.48 µM
same,EC50,[12],41.5 µM
SBI-0640756,Therapeutic window for FLC over PHH,[6],clear therapeutic window
same,Efficacy ranking in the screen,[6],19
same,Effect of N-acetyl cysteine (NAC) on the toxicity of the drug,[20],completely abrogated
same,Sensitivity of cells tested directly from patients,[8],sensitive
Cc1ccc([N+](=O)[O-])cc1S(=O)(=O)N(C)/N=C/c1cnc2ccc(Br)cn12 [PIK-75],"Effect on FLC PDX cells in vitro (dose response, normalized percent survival)",[6],"potent against FLC1,4 relative to PHH"
same,Sensitivity of cells tested directly from patients,[8],sensitive
same,IC50,[27],0.0058 µM
CC1(C)CCC(CN2CCN(c3ccc(C(=O)NS(=O)(=O)c4ccc(NCC5CCOCC5)c([N+](=O)[O-])c4)c(Oc4cnc5[nH]ccc5c4)c3)CC2)=C(c2ccc(Cl)cc2)C1 [venetoclax],"Effect on FLC PDX cells in vitro (dose response, normalized percent survival)",[6],minimal activity
same,Efficacy ranking in the screen,[6],towards the bottom of the ranking
same,Synergy with panobinostat (ZIP synergy score),[13],no synergy
C=CC(=O)N1CC/C(=C\c2ccc(F)c([N+](=O)[O-])c2)C(=O)/C(=C/c2ccc(F)c([N+](=O)[O-])c2)C1 [VLX1570],Efficacy ranking in the screen,[6],31
same,Effect of N-acetyl cysteine (NAC) on the toxicity of the drug,[20],completely abrogated
same,Sensitivity of cells tested directly from patients,[8],blunted response
same,Drug sensitivity of FLC.T6 compared with derived PDX FLC6 (EC50),[8],outliers
CC(=O)[C@]1(O)Cc2c(O)c3c(c(O)c2[C@@H](O[C@H]2C[C@H](N)[C@H](O)[C@H](C)O2)C1)C(=O)c1ccccc1C3=O [idarubicin],"Effect on FLC PDX cells in vitro (dose response, normalized percent survival)",[6],showed an effect on some of the FLC PDX
same,Synergy with A1331852,[7],some synergy
CCOc1cc2ncc(C#N)c(Nc3ccc(OCc4ccccn4)c(Cl)c3)c2cc1NC(=O)/C=C/CN(C)C [Neratinib],"Effect on FLC PDX cells in vitro (dose response, normalized percent survival)",[6],"affected FLC1,5 in the micromolar range"
same,Sensitivity of cells tested directly from patients,[8],no effect on three others
same,Drug sensitivity of FLC.T6 compared with derived PDX FLC6 (EC50),[8],correlated well
same,IC50,[25],0.059 µM
same,IC50,[28],0.092 µM

# — paper PMC8734228 (Cancer discovery, 2021)
